# Source: US20130252886A1, “METHODS OF DELAYING AND TREATING DIABETES” (priority 2010, published 2013)
# “Also recorded” adds a separate entry of the source.
# How the values were obtained:
# Assay type in all cases: in vivo
# [1] = test system: female NOD mice; assay: Diabetes prevention/delayed onset study, fasting blood glucose
# Source text: Normally, ninety to one hundred percent of female NOD mice, available, for example, from Jackson Laboratory, develop diabetes by 30 weeks of age. Two treatments were designed to study delaying the onset of diabetes and diabetes intervention in NOD mice. The first examined therapies in NOD mice beginning at 8 weeks of age to delay the onset of diabetes onset.
# In the diabetes prevention/delayed onset study, mice were divided into five groups. […] Group 3 received 0.4 units insulin subcutaneously just prior to consuming food.
# Female NOD mice (Jackson Laboratory) were allowed to access food ad lib overnight. A 12 hour light-dark cycle was maintained and mice were housed in accordance with the NIH Animal Care and Use guidelines. Food was removed for eight hours during the day and the fasting blood glucose was tested daily at the end of the eight hour fast.
# The control group received vegetable oil to the fur without anything else. […] The insulin only group was given 0.4 units insulin (SQ) just before feeding.
# Diabetes was defined as a fasting blood glucose ≧200 mg/dl on three consecutive days. The average of the fasting blood glucose over the three days was included in the calculation of the average for each group in the prevention data (see Table 1 and FIG. 1).
# [2] = test system: NOD mouse pancreas; assay: Pancreas histology of NOD mice
# Procedure: NOD mice, as previously described in Examples 1-4, supra, were anesthetized with an intraperitoneal injection of 75 mg/kg pentobarbital (Nembutol). When mice were unresponsive to painful stimuli, the pancreas was surgically removed and placed in 10% neutral buffered formalin. Mice were then euthanized by exsanguination. The paraffin blocks of fixed pancreas were processed by automation and 5 micron sections were prepared from three levels for automated hematoxylin and eosin staining followed by aldehyde fuchsin stain for insulin. The histology slides were prepared and stained at Jackson Laboratory, Bar Harbor, Me.
# [3] = Pharmacokinetics: plasma GABA concentration in diabetic dogs (LC/MS)
# Procedure: Plasma GABA measurements were made by liquid chromatography/mass spectroscopy. Blood was drawn at 0, 60, 90, 120 and 240 minutes and plotted as area under the curve. These samples were drawn after a meal but in the absence of exogenous insulin administration, as previously described for C-peptide measurements. Blood samples were drawn and divided into serum separation or plasma separation tubes for C-peptide and pharmacokinetics studies respectively.
# This bell shaped response mimics what is seen in dose-response curves with GABA in vitro.
# [4] = test system: insulin-dependent dogs; assay: Stimulated C-peptide in insulin-dependent dogs (radioimmunoassay); conditions: oral GABA 30, 60, 90 mg/kg, seven dogs
# Source text: C-peptide was monitored as a way to determine the amount of endogenous insulin synthesized and secreted in these diabetic dogs. Endogenous insulin is first biosynthesized as linked A, B and C peptides. The C-peptide is removed and circulates in the blood stream. The active insulin molecule is linked A & B peptide only. Since diabetic patients administering insulin injections receive exogenous A & B peptide, the measurement of C-peptide can determine of how much endogenous insulin is produced by the individual's pancreas.
# In this study stimulated C-peptide was measured every two months. On the day of C-peptide measurements, blood was drawn at time 0 and the dog was fed stimulating C-peptide release. No exogenous insulin was given by injection to avoid suppressing endogenous insulin secretion. Blood was drawn again at 60, 90, 120 and 240 minutes. […] C-peptide was plotted as area under the curve measurements. The values for the placebo treatment have been grouped and represent all seven dogs.
# [5] = test system: insulin-dependent dogs; assay: Clinical trial of oral GABA in naturally-occurring insulin-dependent dogs: blood glucose, fructosamine
# Procedure: These companion dogs were housed in homes, mimicking the lifestyle of diabetic humans. Based on published estimates, approximately 50% of these animals had insulitis, while others have had pancreatitis.
# The GABA was diluted in water and the owner administers it orally (PO QD) as a bolus just before feeding. […] Once randomized on day 120, all investigators were blinded as to treatment.
# As previously described in Example 5, supra, the 8 month clinical canine trial in collaboration with Purdue University was completed. Naturally-occurring diabetic dogs were housed in homes and were insulin dependent when they began the study. FIGS. 18 and 19 show the mean 10 hour fasting blood glucose (mg/dl) and mean C-peptide (ng/ml/kg) in these insulin-dependent dogs, respectively.
# FIG. 18 is a graph of the mean blood glucose in the seven dogs measured during a ten hour window. On a measurement day, the dogs were fed and given insulin. Blood glucose was then monitored at ˜8:00 AM and for every two hours until ˜6:00 PM. The mean of these values was taken and plotted in FIG. 18.
# On day 0, the mean 10 hr glucose was 310 mg/dl. From day 0 to day 60, the dogs were treated with insulin only. […] The mean blood glucose over the 10 hour measurement period dropped to 209 mg/dl by the last visit, a 33% overall improvement without a significant change in the average insulin dosage.
# [6] = test system: diabetic female NOD mice; assay: Diabetes treatment protocol in diabetic NOD mice (GABA before insulin, BID)
# Source text: Once the NOD mice became diabetic, they were shifted from the prevention/delayed onset regimen into the treatment protocol. […] The first dose of GABA was given just after removing the food from the cage and a second dose was given approximately eight hours later, just before feeding. […] Two NOD mice were maintained on insulin when they became diabetic, to serve as controls.
# The first dose of GABA was given just after removing the food from the cage and a second dose was given approximately eight hours later, just before feeding. The insulin dose administered was based on each mouse's blood glucose level.
# Female non-obese diabetic (NOD) mice (Jackson Laboratory) were used to study GABA treatment efficacy. Diabetes normally occurs in 90-100% of these mice by 30 weeks and they develop the insulitis and hypoinsulinemia that characterizes Type 1 diabetes in humans. Mice were housed in accordance with NIH Animal Use and Welfare guidelines with 12 hour light-dark cycle beginning at 8 weeks of age. Animals were fed a standard rodent diet ad lib overnight followed by removal of food from the cage for an 8 hour fast. Before and after the eight hour fast, blood glucose was measured weekly using a Freestyle Glucometer and then daily once mice were determined to be diabetic. Mice were considered diabetic if at the end of the 8 hours fast, on three consecutive days, glucose measurements were ≧200 mg/dl. Onset of diabetes usually began to occur when the mice were 12 weeks of age.
# [7] = test system: Female NOD mice (NOD/ShiLtJ, Taconic); assay: Insulin requirement and blood glucose in diabetic NOD mice, GABA vs lysine controls (Example 6)
# Procedure: Female NOD mice (NOD/ShiLtJ, Taconic) were housed in accordance with NIH Animal Use and Welfare guidelines with 12 hour light-dark cycle beginning at 9 weeks of age. The animals were fed a standard rodent diet ad lib. Blood glucose was measured weekly using a Freestyle glucometer, and then twice daily once it was determined they had diabetes.
# Mice were considered diabetic if a single non-fasting blood glucose measurement was […]. For about eight weeks before the mice became diabetic, their average fasting blood glucose was 102 mg/dl. Once diabetic, blood glucose levels were measured twice daily, approximately eight hours apart. All of the mice received insulin subcutaneously twice daily and the dosage was adjusted as needed. Three diabetic mice were randomly designated as controls and were given the amino acid lysine (8 mg/kg) orally (PO) twice a day before the administration of insulin.
# [8] = Average body weight / lean body mass of NOD mice; conditions: 30 mg/kg GABA and/or 0.4 U insulin groups
# Source text: FIGS. 3 and 4 show the average weight for the NOD mice in each group during the course of the experiment. The x-axis (age of mouse in weeks) corresponds to both the delayed onset and treatment regimens, depending on when the diagnosis of diabetes was made.
# [9] = 13 weeks of age, treatment just before feeding (30 mg/kg GABA PO and/or 0.4 U insulin SQ)
# [10] = 19 weeks of age, treatment just before feeding
# [11] = 21 weeks of age, treatment just before feeding
# [12] = 22 weeks of age, treatment just before feeding
# [13] = 24 weeks of age, treatment just before feeding
# [14] = 26 weeks of age, treatment just before feeding
compound,measurement,setting,value
"NCCCC(=O)O [GABA, γ-aminobutyric acid]",Average Fasting Blood Glucose,"[1]; 13 weeks of age, Group 5 fasting GABA, 30 mg/kg 2 hours before feeding",86 mg/dL
same,Average Fasting Blood Glucose,[1]; [9],80 mg/dL
same,Average Fasting Blood Glucose,"[1]; 15 weeks of age, Group 5 fasting GABA, 30 mg/kg 2 hours before feeding",97 mg/dL
same,Average Fasting Blood Glucose,"[1]; 17 weeks of age, Group 5 fasting GABA, 30 mg/kg 2 hours before feeding",100 mg/dL
same,Average Fasting Blood Glucose,"[1]; 19 weeks of age, Group 5 fasting GABA, 30 mg/kg 2 hours before feeding",172 mg/dL
same,Average Fasting Blood Glucose,[1]; [10],127 mg/dL
same,Average Fasting Blood Glucose,"[1]; 21 weeks of age, Group 5 fasting GABA, 30 mg/kg 2 hours before feeding",239 mg/dL
same,Average Fasting Blood Glucose,[1]; [11],138 mg/dL
same,mice alive and diabetes free,"[1]; 22 weeks of age, Group 2, 30 mg/kg GABA PO just before feeding (4/4 mice)",100%
same,mice that became diabetic,"[1]; 22 weeks of age, Group 5, 30 mg/kg GABA under fasting conditions",50%
same,Average Fasting Blood Glucose,"[1]; 22 weeks of age, Group 5 fasting GABA, 30 mg/kg 2 hours before feeding",266 mg/dL
same,Average Fasting Blood Glucose,[1]; [12],173 mg/dL
same,Average Fasting Blood Glucose,"[1]; 24 weeks of age, Group 5 fasting GABA, 30 mg/kg 2 hours before feeding",265 mg/dL
same,Average Fasting Blood Glucose,[1]; [13],152 mg/dL
same,average fasting blood glucose compared with other treatment groups,[1]; [13],significantly lower
same,average fasting blood glucose compared with other groups,"[1]; 24 weeks, Group 5, 30 mg/kg GABA under fasting conditions",significantly higher
same,Average Fasting Blood Glucose,"[1]; 26 weeks of age, Group 5 fasting GABA, 30 mg/kg 2 hours before feeding",226 mg/dL
same,Average Fasting Blood Glucose,[1]; [14],253 mg/dL
same,prevention / delay of diabetes onset,"[1]; Group 2, 30 mg/kg GABA just before feeding",delayed the longest; also recorded: most successful prevention treatment
same,effectiveness of prevention treatment,"[1]; Group 5, 30 mg/kg GABA under fasting conditions, vs GABA just before feeding",less effective
same,"pancreatic histology, islets and inflammation","[2]; mouse that remained on GABA (and insulin) until sacrifice, FIG. 15",regenerated islets and little to no inflammation
same,pancreatic histology after stopping GABA treatment,"[2]; mouse weaned off insulin, sacrificed at 64 weeks, FIG. 14",causes the inflammation to return to the pancreas
same,change of plasma GABA levels at visit 14,[3]; dose raised to 90 mg/kg,decreases two fold
same,increase of plasma GABA levels between visit 8 and visit 12,[3]; oral GABA dose doubled (30 to 60 mg/kg),~80 fold
same,C-peptide (area under the curve),[4],dose dependent increase
same,average reduction in blood glucose levels from day 60 to day 120,[5]; 30 mg/kg GABA PO QD,32%
same,reduction in average blood glucose levels at day 120 compared to the pre-treatment average (day −10 through day 60),[5]; 30 mg/kg GABA PO QD,40%
same,overall improvement of mean 10 hour blood glucose,"[5]; day 0 to last visit, without significant change in average insulin dosage",33%
same,mean blood glucose over the 10 hour measurement period,"[5]; seven dogs, last visit, GABA escalated 30, 60, 90 mg/kg, day 0 value 310 mg/dl",209 mg/dL
same,fasting blood glucose control,"[5]; six dogs, 30 mg/kg GABA PO QD from day 60, with insulin, 30 mg/kg",downward decrease in fasting blood glucose; also recorded: substantially improved
same,mean fructosamine level,"[5]; six dogs, treatment days 60-120 with 30 mg/kg GABA vs pretreatment days 0-59 (p=0.007)",decline of the mean fructosamine level
same,insulin dose required over the course of treatment,"[6]; 60 mg/kg GABA BID, insulin dosed to keep fasting blood glucose ≦200 (Ex. 2) or ≦150 mg/dl (Ex. 4)",declined markedly; also recorded: rapidly required less insulin; also recorded: significantly less insulin over time
same,lowering blood glucose levels and insulin requirements after onset of diabetes,[6]; 60 mg/kg GABA PO BID,effective treatment
same,fasting and fed blood glucose in mice that became insulin independent,[6]; 60 mg/kg GABA orally over approximately 11 weeks,completely restored to normal
same,number of insulin dependent diabetic mice that became insulin independent,[6]; 60 mg/kg GABA treatment,four
same,reduction in insulin dose to keep fasting blood glucose ≦150 mg/dl,[6]; all diabetic mice treated with 60 mg/kg GABA,≥ 85%
same,"decrease in average insulin requirement, of the maximum dose","[6]; eight diabetic mice, 60 mg/kg GABA BID",85%
same,insulin required to maintain an average weekly blood glucose of 200 mg/dl,"[6]; single mouse of FIG. 15, at sacrifice",0.0025 units
same,"insulin dose at sacrifice, of the original dose","[6]; single mouse of FIG. 15, diabetic 34 weeks, on insulin and GABA throughout",less than 1%
same,insulin requirement to maintain fasting blood glucose ≦150 mg/dl,[6]; three of the eight mice treated with GABA (FIG. 6),eventually came to zero
same,decrease in insulin compared to control mice,"[7]; 60 or 90 mg/kg GABA, over 9 weeks",4 fold
same,mice that became insulin independent,[7]; GABA treated group (4 out of 8),50%
same,blood glucose average in mice not requiring insulin,[7]; on oral GABA alone,below 150 mg/dl
same,mean blood glucose,"[7]; over 9 weeks, 60 or 90 mg/kg GABA with insulin",310 mg/dL
same,average weight / lean body mass,"[8]; FIGS. 3 and 4, 30 mg/kg",maintained the lowest weights; also recorded: maintains lean body mass
"Insulin: exogenous insulin given subcutaneously, 0.4 units just prior to consuming food [reference compound]",Average Fasting Blood Glucose,[1]; [9],82 mg/dL
same,Average Fasting Blood Glucose,"[1]; 15 weeks of age, treatment just before feeding",114 mg/dL
same,Average Fasting Blood Glucose,"[1]; 17 weeks of age, treatment just before feeding",162 mg/dL
same,Average Fasting Blood Glucose,[1]; [10],134 mg/dL
same,Average Fasting Blood Glucose,[1]; [11],150 mg/dL
same,Average Fasting Blood Glucose,[1]; [12],188 mg/dL
same,Average Fasting Blood Glucose,[1]; [13],195 mg/dL
same,Average Fasting Blood Glucose,[1]; [14],260 mg/dL
same,average weight / lean body mass,[8]; FIGS. 3 and 4,increased body mass throughout the study
"NCCCC[C@H](N)C(=O)O [lysine, reference compound]",insulin requirements,"[7]; range over the 9 week study period, GABA 60 or 90 mg/kg or lysine 8 mg/kg PO BID before insulin",0.030-0.047 units/day
